In ChEMBL document CHEMBL1201861, “Genomics of Drug Sensitity in Cancer screening data, Wellcome Trust Sanger Institute” one finds IC50 data, which are given here for 12 compounds.

A value given as a limit tells only on which side of the number the result lay.

In general, IC50 refers to the concentration that inhibits the measured activity by half. High values mean weaker potency, low ones greater potency.

Assay in all cases: cells
One experiment deals with SW 1116. It counts as functional, cell-based. Conditions: Homo sapiens.
The next experiment has as its system SW900. It counts as functional, cell-based. As to conditions: Homo sapiens.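 Also: IC50 is the concentration that inhibits SW900 cell growth, measured by a cell viability assay.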
The next experiment concerns CFPAC-1. It counts as functional, cell-based. As to conditions: Homo sapiens.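 Also: cell viability readout used to gauge suppression of CFPAC-1 cell proliferation.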
Another experiment concerns MOLT-13. In kind it is functional, cell-based. Conditions: Homo sapiens.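 Also: IC50 for suppression of MOLT-13 cell growth, read out with a cell viability assay.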
The subject of a further experiment is KNS-62. In kind it is functional, cell-based. Conditions: Homo sapiens.
Another experiment deals with NCI-H1048. In kind it is functional, cell-based. Conditions: Homo sapiens.
A further experiment has as its system EPLC-272H. In kind it is functional, cell-based. As to conditions: Homo sapiens.
For the next experiment, the system named is NCI-H460. It counts as functional, cell-based, Homo sapiens. Conditions: Homo sapiens, NCI-H460.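 Also: cell viability assay scoring growth inhibition of human NCI-H460 cells.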
Another experiment deals with NCI-H2291. In kind it is functional, cell-based. As to conditions: Homo sapiens.
In the next experiment the test system is NCI-H522. It counts as functional, cell-based, Homo sapiens. As to conditions: Homo sapiens, NCI-H522.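 Also: cell viability assay measuring growth inhibition of human NCI-H522 cells.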
For another experiment, the system named is D-423MG. It counts as functional, cell-based. As to conditions: Homo sapiens.
Another experiment concerns SJRH30. It counts as functional, cell-based. Conditions: Homo sapiens.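 Also: growth inhibition of human SJRH30 cells, read out with a cell viability assay.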
In the next experiment the test system is LU-135. In kind it is functional, cell-based. Conditions: Homo sapiens.
The test system of a further experiment is YH-13. It counts as functional, cell-based. Conditions: Homo sapiens.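 Also: cell viability readout of growth suppression in the human YH-13 cell line.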
The subject of the next experiment is MEL-JUSO. In kind it is functional, cell-based, Homo sapiens. As to conditions: Homo sapiens, MEL-JUSO.
The next experiment has as its system HCT-15. In kind it is functional, cell-based, Homo sapiens. Conditions: Homo sapiens, HCT-15.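 Also: cell viability readout, IC50 reflecting suppression of HCT-15 cell growth.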
A further experiment deals with G-361. In kind it is functional, cell-based, Homo sapiens. Conditions: Homo sapiens, G-361.
For another experiment, the system named is NCI-H2009. In kind it is functional, cell-based, Homo sapiens. As to conditions: Homo sapiens, NCI-H2009.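 Also: cell viability assay measuring inhibition of NCI-H2009 cell growth.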
Another experiment deals with NCI-H1703. In kind it is functional, cell-based, Homo sapiens. Conditions: Homo sapiens, NCI-H1703.

Description for CFPAC-1: SANGER: Inhibition of human CFPAC-1 cell growth in a cell viability assay.
Description for D-423MG: SANGER: Inhibition of human D-423MG cell growth in a cell viability assay.
Description for EPLC-272H: SANGER: Inhibition of human EPLC-272H cell growth in a cell viability assay.
Description for HCT-15: SANGER: Inhibition of human HCT-15 cell growth in a cell viability assay.
Description for KNS-62: SANGER: Inhibition of human KNS-62 cell growth in a cell viability assay.
Description for LU-135: SANGER: Inhibition of human LU-135 cell growth in a cell viability assay.
Description for MEL-JUSO: SANGER: Inhibition of human MEL-JUSO cell growth in a cell viability assay.
Description for MOLT-13: SANGER: Inhibition of human MOLT-13 cell growth in a cell viability assay.
Description for NCI-H1048: SANGER: Inhibition of human NCI-H1048 cell growth in a cell viability assay.
Description for NCI-H1703: SANGER: Inhibition of human NCI-H1703 cell growth in a cell viability assay.
Description for NCI-H2009: SANGER: Inhibition of human NCI-H2009 cell growth in a cell viability assay.
Description for NCI-H2291: SANGER: Inhibition of human NCI-H2291 cell growth in a cell viability assay.
Description for NCI-H460: SANGER: Inhibition of human NCI-H460 cell growth in a cell viability assay.
Description for NCI-H522: SANGER: Inhibition of human NCI-H522 cell growth in a cell viability assay.
Description for SJRH30: SANGER: Inhibition of human SJRH30 cell growth in a cell viability assay.
Description for SW 1116: SANGER: Inhibition of human SW1116 cell growth in a cell viability assay.
Description for SW900: SANGER: Inhibition of human SW900 cell growth in a cell viability assay.
Description for YH-13: SANGER: Inhibition of human YH-13 cell growth in a cell viability assay.

Consider `COc1cc(F)c(F)c(Nc2ccc(I)cc2F)c1NS(=O)(=O)C1(CC(O)CO)CC1` (centres undefined), for which the IC50 is over 5 µM in the experiment on SW 1116; over 5 µM in the experiment with SW900; over 5 µM in the experiment on CFPAC-1; over 5 µM in the experiment with MOLT-13; 1.87 µM in the experiment with KNS-62; over 5 µM in the experiment with NCI-H1048. Also, the IC50 in the experiment with EPLC-272H is 0.185 µM; with NCI-H460, 2.52 µM; in the experiment with NCI-H2291, 0.397 µM; with NCI-H522 it was over 5 µM; with D-423MG it was over 5 µM; with SJRH30, over 5 µM. Moreover, the IC50 in the experiment on LU-135 is over 5 µM; with YH-13, 2.68 µM.
Turning to `Nc1ccn([C@@H]2O[C@H](CO)[C@@H](O)[C@@H]2O)c(=O)n1` [CYTARABINE], the 50% inhibitory concentration (IC50) in the experiment on SW 1116 was over 2 µM; with SW900, 1.62 µM; in the experiment on MEL-JUSO, 0.0858 µM; in the experiment with CFPAC-1, 1.06 µM; in the experiment with MOLT-13 it was over 2 µM; in the experiment on KNS-62, over 2 µM. Further, the half-inhibitory concentration (IC50) in the experiment with NCI-H1048 was 0.389 µM; with EPLC-272H, 1.45 µM; in the experiment with NCI-H460, over 2 µM; with HCT-15, over 2 µM; in the experiment on NCI-H2291, over 2 µM; in the experiment with D-423MG it was 0.299 µM. Further, the IC50 is over 2 µM in the experiment with G-361; over 2 µM in the experiment on NCI-H2009; 0.683 µM in the experiment on SJRH30; over 2 µM in the experiment on LU-135; 0.328 µM in the experiment with YH-13; 0.0498 µM in the experiment on NCI-H1703.
As to `O=C(c1cc(Cc2n[nH]c(=O)c3ccccc23)ccc1F)N1CCN(C(=O)C2CC2)CC1` [OLAPARIB], the IC50 in the experiment on SW 1116, with SW900, with MEL-JUSO, in the experiment on CFPAC-1, in the experiment on MOLT-13 and with KNS-62 was over 5 µM in each case. Further, the half-inhibitory concentration (IC50) in the experiment on NCI-H1048, in the experiment on EPLC-272H, in the experiment on NCI-H2291, with D-423MG, with LU-135 and in the experiment on YH-13 was over 5 µM throughout. Besides, the 50% inhibitory concentration (IC50) in the experiment on NCI-H1703 was over 5 µM.
On to `O=C(NOCC1CC1)c1ccc(F)c(F)c1Nc1ccc(I)cc1Cl` [CI-1040], for which the half-maximal inhibitory concentration (IC50) in the experiment on SW 1116 was 1.56 µM; in the experiment with SW900, over 10 µM; in the experiment with MEL-JUSO it was 5.74 µM; in the experiment on CFPAC-1, over 10 µM; in the experiment with MOLT-13, 5.07 µM; in the experiment on KNS-62, 2.51 µM. Further, the IC50 was over 10 µM with NCI-H1048; 5 µM in the experiment on EPLC-272H; over 10 µM in the experiment with NCI-H460; over 10 µM with HCT-15; 1.33 µM with NCI-H2291; 3.08 µM in the experiment on D-423MG. Besides, the half-inhibitory concentration (IC50) was 0.368 µM with G-361; over 10 µM with NCI-H2009; over 10 µM with SJRH30; 7.56 µM in the experiment with LU-135; over 10 µM in the experiment on YH-13; over 10 µM in the experiment on NCI-H1703.
On to `CN(C)C/C=C/C(=O)Nc1cc2c(Nc3ccc(F)c(Cl)c3)ncnc2cc1O[C@H]1CCOC1` [AFATINIB], for which the 50% inhibitory concentration (IC50) in the experiment on SW 1116 is over 0.5 µM; with SW900, over 0.5 µM; with MEL-JUSO, over 0.5 µM; in the experiment on CFPAC-1, over 0.5 µM; with MOLT-13, 0.24 µM; in the experiment with KNS-62, over 0.5 µM. For the same compound, the half-maximal inhibitory concentration (IC50) in the experiment with NCI-H1048, in the experiment with EPLC-272H, in the experiment with NCI-H460, in the experiment with HCT-15, in the experiment with NCI-H2291 and in the experiment on D-423MG was over 0.5 µM each time. Further, the half-maximal inhibitory concentration (IC50) in the experiment on G-361, with NCI-H2009, in the experiment with SJRH30, in the experiment with LU-135, with YH-13 and in the experiment on NCI-H1703 was over 0.5 µM in each case.
For the compound `CCOc1nc(NC(=O)Cc2cc(OC)ccc2OC)cc(N)c1C#N`, the half-inhibitory concentration (IC50) in the experiment on SW 1116, with SW900, with MEL-JUSO, with CFPAC-1, in the experiment with MOLT-13 and with KNS-62 was over 10 µM in each case. The concentration for half-maximal inhibition (IC50) in the experiment with NCI-H1048, with EPLC-272H, in the experiment with NCI-H460, with HCT-15, in the experiment on NCI-H2291 and in the experiment with NCI-H522 was over 10 µM in each case. In addition, the half-inhibitory concentration (IC50) in the experiment with D-423MG, with G-361, with NCI-H2009, in the experiment with SJRH30, in the experiment on LU-135 and with YH-13 was over 10 µM each time. In addition, in the experiment with NCI-H1703, the IC50 is over 10 µM.
In the case of `COc1ccc(C2=N[C@@H](c3ccc(Cl)cc3)[C@@H](c3ccc(Cl)cc3)N2C(=O)N2CCNC(=O)C2)c(OC(C)C)c1` [NUTLIN-3], the IC50 in the experiment on SW 1116, in the experiment on SW900, in the experiment with CFPAC-1, in the experiment with MOLT-13, in the experiment on KNS-62 and in the experiment on NCI-H1048 was over 8 µM throughout. Moreover, the half-inhibitory concentration (IC50) in the experiment on EPLC-272H was over 8 µM; with NCI-H460, 4.91 µM; in the experiment with NCI-H2291 it was over 8 µM; in the experiment on NCI-H522, over 8 µM; in the experiment on D-423MG, over 8 µM; in the experiment with SJRH30, over 8 µM. The IC50 with LU-135 and in the experiment with YH-13 was over 8 µM throughout.
For the compound `C=CCNC1=C2C[C@@H](C)C[C@H](OC)[C@H](O)[C@@H](C)/C=C(\C)[C@H](OC(N)=O)[C@@H](OC)/C=C\C=C(/C)C(=O)NC(=CC1=O)C2=O` [TANESPIMYCIN], the IC50 was over 1 µM with SW 1116; over 1 µM with SW900; 0.0447 µM in the experiment on MEL-JUSO; 0.375 µM with CFPAC-1; over 1 µM in the experiment on MOLT-13; 0.321 µM with KNS-62. Moreover, the IC50 was 0.29 µM with NCI-H1048; 0.062 µM in the experiment on EPLC-272H; 0.0197 µM with NCI-H460; over 1 µM in the experiment on HCT-15; 0.479 µM with NCI-H2291; 0.878 µM with NCI-H522. Also, the 50% inhibitory concentration (IC50) in the experiment with D-423MG was over 1 µM; in the experiment with G-361, 0.227 µM; with NCI-H2009, 0.853 µM; with SJRH30, over 1 µM; in the experiment with LU-135 it was over 1 µM; in the experiment on YH-13 it was 0.0572 µM. In addition, the IC50 in the experiment on NCI-H1703 came out at 0.414 µM.
For the compound `O=C1N=C(NCc2cccs2)S/C1=C\c1ccc2ncccc2c1`, the IC50 in the experiment on SW 1116, with SW900, in the experiment on CFPAC-1, in the experiment with MOLT-13, in the experiment on KNS-62 and with NCI-H1048 was over 5 µM throughout. The IC50 in the experiment on EPLC-272H, in the experiment with NCI-H460, in the experiment with NCI-H2291, with NCI-H522, in the experiment on D-423MG and with SJRH30 was over 5 µM throughout. For the same compound, the IC50 was over 5 µM with LU-135 and 4.76 µM in the experiment with YH-13.
In the case of `CC(=O)O[C@@]12CO[C@@H]1C[C@H](O)[C@@]1(C)C(=O)[C@H](O)C3=C(C)[C@@H](OC(=O)[C@H](O)[C@@H](NC(=O)OC(C)(C)C)c4ccccc4)C[C@@](O)([C@@H](OC(=O)c4ccccc4)[C@H]21)C3(C)C` [DOCETAXEL], the half-inhibitory concentration (IC50) with SW 1116 is over 0.01 µM; in the experiment on SW900, 0.00755 µM; in the experiment on MEL-JUSO, 0.00639 µM; with CFPAC-1, over 0.01 µM; in the experiment with MOLT-13, over 0.01 µM; in the experiment with KNS-62, 0.00112 µM. Also, the IC50 was 0.00192 µM with NCI-H1048; 0.00111 µM in the experiment on EPLC-272H; over 0.01 µM in the experiment with NCI-H2291; 0.0013 µM with D-423MG; over 0.01 µM with G-361; over 0.01 µM in the experiment on LU-135. Further, the values for the IC50 in the experiment with YH-13 and with NCI-H1703 were 0.000791 µM and 0.00157 µM, respectively.
Regarding `CC(=O)O[C@@H]1[C@@H](OC(C)=O)[C@@H](O)[C@H](Oc2c(-c3ccc(O)cc3)oc3cc(O)cc(O)c3c2=O)O[C@H]1C`, the IC50 with SW 1116, in the experiment with SW900, in the experiment with MEL-JUSO, in the experiment on CFPAC-1, in the experiment on MOLT-13 and in the experiment on KNS-62 was over 10 µM throughout. Besides, the IC50 in the experiment with NCI-H1048, with EPLC-272H, in the experiment on NCI-H460, with HCT-15, in the experiment on NCI-H2291 and in the experiment with NCI-H522 was over 10 µM in each case. Moreover, the IC50 in the experiment on D-423MG, in the experiment on G-361, in the experiment with NCI-H2009, in the experiment with SJRH30, in the experiment with LU-135 and in the experiment on YH-13 was over 10 µM throughout. The compound also came in with an IC50 with NCI-H1703 of over 10 µM.
Consider `COc1ccc(-c2ccc3c(N4CCOC[C@@H]4C)nc(N4CCOC[C@@H]4C)nc3n2)cc1CO` [AZD-8055], for which the IC50 in the experiment on SW 1116 is over 2 µM; in the experiment with SW900 it was 1.75 µM; in the experiment with CFPAC-1 it was over 2 µM; in the experiment with MOLT-13 it was 0.665 µM; in the experiment on KNS-62, 0.506 µM; in the experiment on NCI-H1048, 0.586 µM. In addition, the IC50 in the experiment with EPLC-272H is 0.431 µM; in the experiment on NCI-H460, 0.506 µM; in the experiment with NCI-H2291, over 2 µM; in the experiment on NCI-H522 it was 0.63 µM; in the experiment with D-423MG it was 1.03 µM; in the experiment with SJRH30, over 2 µM. Further, the IC50 in the experiment with LU-135 was over 2 µM; in the experiment on YH-13, 0.549 µM.
